Data on 17 molecules can be found in patent US20180244611A1, “Modulators of the Cystic Fibrosis Transmembrane Conductance Regulator Protein and Methods of Use” (AbbVie S.à.r.l., priority 2017, published 2018).

Test [1] has as its target T1, F508delCFTR (Homo sapiens, UniProt P13569, DEL508-508).
T1 construct: expressed in transfected cells; host or cells: CFBE41o- human lung-derived epithelial cells (CFBE41o-F508delCFTR-HRP), doxycycline-inducible
Put plainly: Cell Surface Expression-Horse Radish Peroxidase (CSE-HRP) assay, test compound without co-corrector.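 As to Emax: percent of on-plate 2 µM positive control corrector response over DMSO.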 In kind it is cell-based. The conditions noted are these: for Emax: maximum at any tested concentration, normalized to positive control, without co-corrector; for EC50: test compound without co-corrector. In a few lines: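 CFBE41o- cells expressing F508delCFTR with HRP in the fourth exofacial loop, induced with 0.5 μg/mL doxycycline for 72 h at 37° C, then exposed to compound alone for 18-24 h at 33° C, 8-point 3-fold series from 20 μM. Surface HRP read by luminol luminescence, normalized to positive corrector control versus DMSO; EC50 from variable-slope sigmoidal fit of three replicate plates.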

In test [2] the target is T1, F508delCFTR. Put plainly: Cell Surface Expression-Horse Radish Peroxidase (CSE-HRP) assay, test compound with co-corrector.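 As to Maximum % activity (with co-corrector): percent of 2 µM positive control corrector over DMSO; co-corrector is that same compound.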 Format: cell-based. The conditions noted are these: with 2 μM co-corrector; for Maximum % activity (with co-corrector): maximum at any tested concentration, normalized to positive control. Summed up:
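CFBE41o- cells expressing F508delCFTR with HRP in the fourth exofacial loop, induced with 0.5 μg/mL doxycycline for 72 h, then treated 18-24 h at 33° C. with compound (8 points, top 20 μM, 3-fold) plus 2 μM co-corrector. Surface HRP read by luminol luminescence; activity normalised to positive control, EC50 from variable-slope sigmoidal fit.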

Structures are written as SMILES.

T1 sequence (P13569 with tags, fused parts or gaps DEL508-508): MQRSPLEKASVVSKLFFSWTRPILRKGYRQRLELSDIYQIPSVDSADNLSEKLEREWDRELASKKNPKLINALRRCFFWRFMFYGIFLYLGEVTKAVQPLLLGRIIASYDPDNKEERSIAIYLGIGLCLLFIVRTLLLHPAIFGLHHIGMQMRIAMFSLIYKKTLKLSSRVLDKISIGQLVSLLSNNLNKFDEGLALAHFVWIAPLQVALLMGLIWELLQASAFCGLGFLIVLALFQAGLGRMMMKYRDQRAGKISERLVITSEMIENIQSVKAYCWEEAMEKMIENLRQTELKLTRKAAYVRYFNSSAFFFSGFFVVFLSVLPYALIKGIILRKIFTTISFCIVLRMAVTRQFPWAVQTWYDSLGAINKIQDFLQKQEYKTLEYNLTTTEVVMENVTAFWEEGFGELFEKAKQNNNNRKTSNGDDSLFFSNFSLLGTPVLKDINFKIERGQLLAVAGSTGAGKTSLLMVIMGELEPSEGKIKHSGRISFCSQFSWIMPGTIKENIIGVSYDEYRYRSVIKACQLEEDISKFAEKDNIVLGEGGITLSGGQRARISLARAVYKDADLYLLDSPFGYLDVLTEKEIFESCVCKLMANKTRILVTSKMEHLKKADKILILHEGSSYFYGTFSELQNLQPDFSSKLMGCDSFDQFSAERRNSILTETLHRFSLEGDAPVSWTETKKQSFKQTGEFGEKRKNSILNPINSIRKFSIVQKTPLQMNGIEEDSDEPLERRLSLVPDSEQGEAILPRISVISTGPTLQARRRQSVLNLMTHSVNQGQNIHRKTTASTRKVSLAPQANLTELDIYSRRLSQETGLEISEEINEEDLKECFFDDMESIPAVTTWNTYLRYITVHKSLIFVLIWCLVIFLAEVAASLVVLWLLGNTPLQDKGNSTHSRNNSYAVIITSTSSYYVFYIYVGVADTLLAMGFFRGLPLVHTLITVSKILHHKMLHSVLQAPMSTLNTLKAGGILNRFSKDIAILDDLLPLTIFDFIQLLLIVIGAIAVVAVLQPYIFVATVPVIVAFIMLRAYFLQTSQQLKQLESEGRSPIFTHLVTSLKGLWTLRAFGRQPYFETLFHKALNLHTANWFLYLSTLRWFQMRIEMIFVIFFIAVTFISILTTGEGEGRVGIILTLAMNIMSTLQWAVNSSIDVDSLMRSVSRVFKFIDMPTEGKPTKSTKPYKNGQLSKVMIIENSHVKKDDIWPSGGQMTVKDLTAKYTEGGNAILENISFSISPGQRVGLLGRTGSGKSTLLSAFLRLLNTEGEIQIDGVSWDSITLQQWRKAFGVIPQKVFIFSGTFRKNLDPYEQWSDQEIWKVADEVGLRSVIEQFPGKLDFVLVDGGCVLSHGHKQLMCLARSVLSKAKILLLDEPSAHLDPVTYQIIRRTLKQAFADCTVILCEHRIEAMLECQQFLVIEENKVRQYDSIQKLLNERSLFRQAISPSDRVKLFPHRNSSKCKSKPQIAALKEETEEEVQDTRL

In general, Emax refers to the greatest response seen or fitted, relative to the assay's reference. Broadly, the EC50 is the concentration giving half of the maximal effect. Read a high EC50 as weaker potency. As to `CCC1(C(=O)NS(=O)(=O)c2cccc3ccccc23)Cc2cccc(OC)c21` (centres unmarked) [II-118], in test [1], the Emax is no less than 150% and the EC50 was in the range of 3 to 10 µM. In test [2], the “Maximum % activity (with co-corrector)” value is on record as “+++ (≥350)” and the concentration giving a half-maximal response (EC50) is less than 3 µM.
In test [1], `COc1ccc(-c2cccc(OC(F)(F)F)c2)c2c1C(C(=O)NS(=O)(=O)c1cccc3ccccc13)CCC2` (centres unmarked) [II-119] registered an Emax of no less than 150% and a concentration giving a half-maximal response (EC50) of 3 to 10 µM. In test [2], the “Maximum % activity (with co-corrector)” value is “+++ (≥350)” and the EC50 is 3 to 10 µM.
Consider `COc1ccc(/C=C/c2ccccc2)c2c1C(C(=O)NS(=O)(=O)c1cccc3ccccc13)CCC2` (centres unmarked) [II-120], for which, in test [1], the maximal response (Emax) was less than 50% and the concentration giving a half-maximal response (EC50) lay within 3 to 10 µM. In addition, in test [2], the “Maximum % activity (with co-corrector)” value is “++ (≥150 and <350)”; the 50% effective concentration (EC50) was 3 to 10 µM.
Turning to `COc1ccc(C2=CCOCC2)c2c1C(C(=O)NS(=O)(=O)c1cccc3ccccc13)CCC2` (centres unmarked) [II-121], in test [1], the maximal response (Emax) was no less than 150% and the EC50 lay in the range of 3 to 10 µM. Besides, in test [2], the “Maximum % activity (with co-corrector)” value is recorded as “+++ (≥350)” and the EC50 is less than 3 µM.
In test [1], `COc1ccc(-c2ccc(C)nc2)c2c1CCCC2C(=O)NS(=O)(=O)c1cccc2ccccc12` (centres unmarked) [II-122] returned an Emax of no less than 150% and a half-maximal effective concentration (EC50) of 3 to 10 µM. For the same molecule, in test [2], the “Maximum % activity (with co-corrector)” value is “+++ (≥350)” and the EC50 is less than 3 µM.
Taken in the same sequence, the figures for `CCOc1ccc2c(S(=O)(=O)NC(=O)C3CCc4c(Br)ccc(OC)c43)cccc2n1` (centres unmarked) [II-123] were no less than 150%, 3 to 10 µM, “+++ (≥350)” and 3 to 10 µM.
Taken in the same sequence, the figures for `COc1ccc(N2CCCC2)c2c1C(C(=O)NS(=O)(=O)c1cccc3ccccc13)CCC2` (centres unmarked) [II-124] were no less than 150%, less than 3 µM, “+++ (≥350)” and less than 3 µM.
Regarding `CCC1(C(=O)NS(=O)(=O)c2cccc(N3CCCCC3)c2C)CCc2c(Cl)cccc21` (centres unmarked) [II-125], in test [1], the maximal effect (Emax) was 50 to 150% and the EC50 was 3 to 10 µM. Further, in test [2], the “Maximum % activity (with co-corrector)” value is “+++ (≥350)” and the EC50 fell in the range of 3 to 10 µM.
Turning to `CCC1(C(=O)NS(=O)(=O)c2cccc(N3CC(F)(F)C3)c2C)CCc2c(Cl)cccc21` (centres unmarked) [II-126], in test [1], the Emax lay in the range of 50 to 150% and the concentration for a half-maximal effect (EC50) lay in the range of 3 to 10 µM. Moreover, in test [2], the “Maximum % activity (with co-corrector)” value is recorded as “+++ (≥350)” and the EC50 lay within 3 to 10 µM.
For the molecule `CCC1(C(=O)NS(=O)(=O)c2cccc(N3CCC(F)(F)C3)c2C)CCc2c(Cl)cccc21` (centres unmarked) [II-127], in test [1], the maximal effect (Emax) was in the range of 50 to 150% and the half-maximal effective concentration (EC50) fell in the range of 3 to 10 µM. For the same molecule, in test [2], the “Maximum % activity (with co-corrector)” value was “+++ (≥350)” and the concentration for a half-maximal effect (EC50) was less than 3 µM.
In test [1], `COc1ccc(-c2ccc(C(F)(F)F)nc2)c2c1CCCC2C(=O)NS(=O)(=O)c1cccc2ccccc12` (centres unmarked) [II-129] registered a maximum response (Emax) of no less than 150% and a 50% effective concentration (EC50) of less than 3 µM. Also, in test [2], the “Maximum % activity (with co-corrector)” value is recorded as “+++ (≥350)” and the EC50 was less than 3 µM.
In test [1], `COc1ccc(C2=CCOCC2)c2c1CCCC2C(=O)NS(=O)(=O)c1cccc2ccccc12` (centres unmarked) [II-130] showed an Emax of no less than 150% and a half-maximal effective concentration (EC50) of less than 3 µM. Also, in test [2], the “Maximum % activity (with co-corrector)” value is recorded as “+++ (≥350)” and the half-maximal effective concentration (EC50) was less than 3 µM.
Consider `COc1ccc(-c2ccc(C3CC3)nc2)c2c1CCCC2C(=O)NS(=O)(=O)c1cccc2ccccc12` (centres unmarked) [II-131], for which, in test [1], the Emax is no less than 150% and the 50% effective concentration (EC50) was less than 3 µM. In addition, in test [2], the “Maximum % activity (with co-corrector)” value was “+++ (≥350)” and the concentration giving a half-maximal response (EC50) is less than 3 µM.
In test [1], `COc1ccc(Br)c2c1C(C(=O)NS(=O)(=O)c1cccc3nc(C(C)C)ccc13)CC2` (centres unmarked) [II-132] returned a maximal response (Emax) of no less than 150% and a 50% effective concentration (EC50) of less than 3 µM. Also, in test [2], the “Maximum % activity (with co-corrector)” value is listed as “+++ (≥350)” and the EC50 is less than 3 µM.
For the molecule `COc1ccc(Br)c2c1C(C(=O)NS(=O)(=O)c1cccc3c(OC)cccc13)CC2` (centres unmarked) [II-133], in test [1], the maximal response (Emax) was no less than 150% and the EC50 lay within 3 to 10 µM. In test [2], the “Maximum % activity (with co-corrector)” value is given as “+++ (≥350)” and the EC50 fell in the range of 3 to 10 µM.
In test [1], `COC(=O)c1ccc(OC)c2c1CCC2C(=O)NS(=O)(=O)c1cccc2ccccc12` (centres unmarked) [II-134] registered a maximum response (Emax) of no less than 150% and a 50% effective concentration (EC50) of 3 to 10 µM. In test [2], the “Maximum % activity (with co-corrector)” value was “+++ (≥350)” and the concentration giving a half-maximal response (EC50) was less than 3 µM.
Turning to `COC(=O)c1cccc2c(S(=O)(=O)NC(=O)C3CCc4c(Br)ccc(OC)c43)cccc12` (centres unmarked) [II-135], in test [1], the Emax is no less than 150% and the EC50 is 3 to 10 µM. In test [2], the “Maximum % activity (with co-corrector)” value is “+++ (≥350)” and the concentration giving a half-maximal response (EC50) is 3 to 10 µM.
